Measured values from ChEMBL document CHEMBL5512640, “Discovery of novel itaconimide-based derivatives as potent HDAC inhibitors for the efficient treatment of prostate cancer” (Eur J Med Chem, 2024).

Columns and labels:
DU-145 [1] = assay: Inhibition of colony formation in human DU-145 cells assessed as suppression of colony formation at 3.2 uM measured after […] by crystal violet staining based analysis relative to control; assay type: functional
[2] = Cmax in Sprague-Dawley rat at 2 mg/kg, iv measured upto 24 hrs by LC-MS/MS analysis; assay type: ADME, organism-based; details: in vivo
[3] = Cmax in Sprague-Dawley rat at 10 mg/kg, po measured upto 24 hrs by LC-MS/MS analysis; assay type: ADME, organism-based; details: in vivo
[4] = Acute toxicity in Sprague-Dawley rat assessed as effect on spleen at 500 to 4500 mg/kg, po measured after 15 days; assay type: organism-based; details: in vivo, 360 h, dose 500-4500 mg/kg, time 15 day
[5] = Acute toxicity in Sprague-Dawley rat assessed as effect on lung at 500 to 4500 mg/kg, po measured after 15 days; assay type: organism-based; details: in vivo, 360 h, dose 500-4500 mg/kg, time 15 day
[6] = target: Protein deacetylase HDAC6 (Homo sapiens, UniProt Q9UBN7); assay: Inhibition of human HDAC6 incubated for 10 mins followed by fluorogenic substrate addition by fluorescence based analysis
DU-145 [7] = assay: Induction of cell cycle arrest in human DU-145 cells assessed as increase in accumulation of cells at G2/M phase incubated for 24 hrs by PI staining based flow cytometry analysis; assay type: functional; details: dose 0.4-3.2 µM
DU-145 [8] = assay: animal or person; assay type: functional, Homo sapiens; details: Mus musculus, DU-145, 960 h, route po, time 40 day, read-out: TGI
Description: Antitumor activity against human DU-145 cells xenografted in Balb/c nude mouse model assessed as tumor growth inhibition at 100 mg/kg, po administered once daily for 40 days relative to control

A549 = assay: Antiproliferative activity against human A549 cells incubated for 96 hrs by MTT assay; assay type: functional, cell-based; details: A549, 96 h
Histone deacetylase 9 = Histone deacetylase 9 (Homo sapiens, UniProt Q9UKV0); assay: Inhibition of human HDAC9 incubated for 10 mins followed by fluorogenic substrate addition by fluorescence based analysis
NCI-H446 = assay: Antiproliferative activity against human NCI-H446 cells incubated for 96 hrs by MTT assay; assay type: functional, cell-based; details: NCI-H446, 96 h
[9] = Oral bioavailability in Sprague-Dawley rat at 10 mg/kg measured upto 24 hrs by LC-MS/MS analysis; assay type: ADME, organism-based; details: in vivo
[10] = Acute toxicity in female Sprague-Dawley rat assessed as effect on body weight at 500 to 4500 mg/kg, po measured every 3 days for 15 days; assay type: organism-based; details: in vivo, 360 h, dose 500-4500 mg/kg, time 15 day
[11] = Clearance in Sprague-Dawley rat at 2 mg/kg, iv measured upto 24 hrs by LC-MS/MS analysis; assay type: ADME, organism-based; details: in vivo

Chain of Histone deacetylase 9 (Q9UKV0 whole entry): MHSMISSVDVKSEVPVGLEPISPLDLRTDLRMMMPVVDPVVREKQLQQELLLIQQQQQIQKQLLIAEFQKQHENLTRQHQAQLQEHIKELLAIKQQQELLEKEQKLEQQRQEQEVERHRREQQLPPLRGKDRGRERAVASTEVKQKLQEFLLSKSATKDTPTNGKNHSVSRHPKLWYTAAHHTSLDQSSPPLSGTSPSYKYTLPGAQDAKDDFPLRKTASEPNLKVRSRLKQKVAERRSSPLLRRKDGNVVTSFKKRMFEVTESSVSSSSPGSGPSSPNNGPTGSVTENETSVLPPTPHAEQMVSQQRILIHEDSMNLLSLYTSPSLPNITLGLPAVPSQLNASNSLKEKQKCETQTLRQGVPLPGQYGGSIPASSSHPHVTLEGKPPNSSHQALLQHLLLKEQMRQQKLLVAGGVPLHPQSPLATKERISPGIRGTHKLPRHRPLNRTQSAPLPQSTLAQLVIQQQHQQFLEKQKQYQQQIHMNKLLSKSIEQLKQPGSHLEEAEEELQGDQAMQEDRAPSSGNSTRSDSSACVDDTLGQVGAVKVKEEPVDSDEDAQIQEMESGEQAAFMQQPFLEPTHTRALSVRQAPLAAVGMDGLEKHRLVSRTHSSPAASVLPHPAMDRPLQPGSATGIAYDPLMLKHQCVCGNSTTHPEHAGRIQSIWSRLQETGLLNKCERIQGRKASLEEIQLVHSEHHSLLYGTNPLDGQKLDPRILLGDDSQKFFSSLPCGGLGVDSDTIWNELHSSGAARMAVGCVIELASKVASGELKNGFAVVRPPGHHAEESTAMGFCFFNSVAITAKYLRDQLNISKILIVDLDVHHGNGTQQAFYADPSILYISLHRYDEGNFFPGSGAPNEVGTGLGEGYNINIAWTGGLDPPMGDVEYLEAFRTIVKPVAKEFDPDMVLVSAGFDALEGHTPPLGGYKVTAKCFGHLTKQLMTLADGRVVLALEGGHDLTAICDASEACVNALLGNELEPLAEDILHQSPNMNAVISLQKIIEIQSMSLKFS
Chain of Protein deacetylase HDAC6 (Q9UBN7 whole entry): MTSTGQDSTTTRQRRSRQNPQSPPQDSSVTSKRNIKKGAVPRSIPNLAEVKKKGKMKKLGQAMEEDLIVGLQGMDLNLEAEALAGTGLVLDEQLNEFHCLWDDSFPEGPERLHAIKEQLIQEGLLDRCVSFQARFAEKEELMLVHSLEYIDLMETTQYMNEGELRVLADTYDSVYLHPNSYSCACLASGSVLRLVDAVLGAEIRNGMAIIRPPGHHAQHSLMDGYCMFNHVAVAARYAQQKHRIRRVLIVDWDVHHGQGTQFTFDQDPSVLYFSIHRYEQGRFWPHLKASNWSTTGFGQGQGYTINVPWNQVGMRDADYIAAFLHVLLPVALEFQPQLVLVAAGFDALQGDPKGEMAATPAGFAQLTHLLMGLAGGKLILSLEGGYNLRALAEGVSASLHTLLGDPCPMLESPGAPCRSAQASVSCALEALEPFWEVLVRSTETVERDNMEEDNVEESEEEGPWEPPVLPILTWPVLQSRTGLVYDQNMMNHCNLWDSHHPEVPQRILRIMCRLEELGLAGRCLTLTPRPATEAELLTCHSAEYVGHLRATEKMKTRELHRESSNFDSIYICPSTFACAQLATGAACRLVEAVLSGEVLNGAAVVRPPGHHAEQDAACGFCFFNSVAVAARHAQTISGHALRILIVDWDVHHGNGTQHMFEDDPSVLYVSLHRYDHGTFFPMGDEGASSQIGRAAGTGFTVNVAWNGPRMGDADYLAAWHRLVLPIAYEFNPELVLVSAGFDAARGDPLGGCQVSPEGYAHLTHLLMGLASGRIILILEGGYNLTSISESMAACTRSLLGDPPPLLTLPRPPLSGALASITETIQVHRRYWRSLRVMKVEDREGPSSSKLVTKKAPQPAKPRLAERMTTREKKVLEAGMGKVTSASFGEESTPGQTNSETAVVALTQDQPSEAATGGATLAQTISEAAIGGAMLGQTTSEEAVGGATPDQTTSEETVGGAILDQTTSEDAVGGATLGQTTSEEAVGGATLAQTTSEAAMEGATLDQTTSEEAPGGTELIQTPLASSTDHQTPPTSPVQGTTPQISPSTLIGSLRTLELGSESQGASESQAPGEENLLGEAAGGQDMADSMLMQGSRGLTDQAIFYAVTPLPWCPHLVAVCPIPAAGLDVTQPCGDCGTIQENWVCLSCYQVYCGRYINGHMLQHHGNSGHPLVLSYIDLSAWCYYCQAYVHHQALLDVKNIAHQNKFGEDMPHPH

With COc1ccccc1/C=C1\CC(=O)N(CCCCCCC(=O)NO)C1=O the inhibition at 3.2 µM (DU-145 [1]) was 100%, the Cmax [2] was 852 ng/mL and the Cmax [3] was 774 ng/mL. The Activity [4] was “Non-Toxic”, the Activity [5] was “Non-Toxic” and the IC50 [6] was 3 nM. For the same compound, the Activity (DU-145 [7]) was “Dose-Dependent Effect”, the inhibition in vivo at 100 mg/kg (DU-145 [8]) was 50.9% and the IC50 (A549) was 1390 nM. The IC50 (Histone deacetylase 9) was > 5000 nM, the IC50 (NCI-H446) was 650 nM and the bioavailability [9] was 46.5%. The Activity [10] was “Non-Toxic” and the clearance [11] was 26.2 mL/min/kg.
